Results from the Bradley open melting point set (2014).

With `CC(CC(=O)O)CC(C)(C)C` (centres undefined) [3,5,5-trimethylhexanoic acid] as the molecule, how does the melting point read?
Its melting point is -70 °C.

With `CN1C(=O)OC(C)(C)C1=O` [3,5,5-trimethyloxazolidine-2,4-dione] as the molecule, how does the melting point read?
Its melting point is 47 °C.

Which melting point does the source give for `CC(C)(C)c1cc(C(=Nc2ccccc2)Nc2ccccc2)cc(C(C)(C)C)c1O` [3,5-Di-tert-butyl-4-hydroxy-N,N'-diphenyl-benzamidine] here?
Its melting point is 131 °C.

Which melting point does the source give for `O=C(Cl)c1cc([N+](=O)[O-])cc([N+](=O)[O-])c1` [3,5-Dinitrobenzoyl chloride] here?
The melting point was 69 °C.

For `N#C/C=C/c1cc(C(F)(F)F)cc(C(F)(F)F)c1` [3,5-bis(trifluoromethyl)cinnamonitrile], which melting point is on record?
The melting point was 82 °C.

Which melting point does the source give for `CC(C)(C)c1cc(CC(=O)O)cc(C(C)(C)C)c1O` [3,5-di-tert-butyl-4-hydroxyphenylacetic acid] here?
Its melting point is 156 °C.

Which melting point does the source give for `O=Cc1cc(Br)c(O)c(Br)c1` [3,5-dibromo-4-hydroxybenzaldehyde] here?
Its melting point is 182 °C.

With `O=Cc1cc(Br)cc(Br)c1` [3,5-dibromobenzaldehyde] as the molecule, how does the melting point read?
The melting point was 91 °C.

Which melting point does the source give for `O=C(O)c1cc(Cl)c(O)c(Cl)c1` [3,5-dichloro-4-hydroxybenzoic acid] here?
Its melting point is 268 °C.

Which melting point does the source give for `NNC(=O)c1cc(Cl)cc(Cl)c1` [3,5-dichlorobenzhydrazide] here?
The melting point was 206 °C.

For `O=C(O)c1cc(Cl)cc(Cl)c1` [3,5-dichlorobenzoic acid], which melting point is on record?
The melting point was 186 °C.

Which melting point does the source give for `Oc1cc(Cl)cc(Cl)c1` [3,5-dichlorophenol] here?
The melting point was 68 °C.

Which melting point does the source give for `O=C(O)c1cc(Cl)cc(Cl)c1O` [3,5-dichlorosalicylic acid] here?
The melting point was 224 °C.

For `COc1cc(N=C=S)cc(OC)c1` [3,5-dimethoxyphenyl isothiocyanate], which melting point is on record?
The melting point was 51 °C.

Which melting point does the source give for `Cc1cc(C)n(C(N)=O)n1` [3,5-dimethyl-1h-pyrazole-1-carboxamide] here?
Its melting point is 113 °C.

Which melting point does the source give for `Cc1cc(C)cc(N)c1` [3,5-dimethylaniline] here?
The melting point was 10 °C.

For `Cc1cc(C)cc(O)c1` [3,5-dimethylphenol], which melting point is on record?
The melting point was 63 °C.

For `O=Cc1cc([N+](=O)[O-])cc([N+](=O)[O-])c1O` [3,5-dinitrosalicylaldehyde], which melting point is on record?
Its melting point is 73 °C.

For `CCC(C)(O)C#CC(C)(O)CC` (centres undefined) [3,6-dimethyl-4-octyn-3,6-diol], which melting point is on record?
Its melting point is 54 °C.

For `CC(CCC(=O)O)C1CCC2C3C(O)CC4CC(O)CCC4(C)C3CC(=O)C12C` (centres undefined) [3,7-dihydroxy-12-oxocholan-24-oic acid], which melting point is on record?
Its melting point is 221 °C.

For `CCCOC1CCC2(C)C(CC(=O)C3C2CCC2(C)C(OCCC)CCC32)C1` (centres undefined) [3,17-dipropoxyandrostan-7-one], which melting point is on record?
Its melting point is 163 °C.

Which melting point does the source give for `O=C1Nc2ccccc2C[C@H]1c1ccccc1F` [3-(2-Fluorophenyl)-1,2,3,4-tetrahydro-2-quinolone] here?
Its melting point is 191 °C.

With `Oc1cccc(C2CNCCN2)c1` (centres undefined) [3-(2-piperazinyl)phenol] as the molecule, how does the melting point read?
The melting point was 184 °C.

Which melting point does the source give for `Nc1ccc(CCC(=O)O)cc1` [3-(4-aminophenyl)propionic acid] here?
The melting point was 134 °C.

With `OCC(O)COc1ccc(Cl)cc1` (centres undefined) [3-(4-chlorophenoxy)-1,2-propanediol] as the molecule, how does the melting point read?
Its melting point is 80 °C.

Which melting point does the source give for `O=C(O)CC(CC(=O)O)c1ccc(Cl)cc1` [3-(4-chlorophenyl)glutaric acid] here?
The melting point was 166 °C.

Which melting point does the source give for `COc1ccc(C2=CCC3(C)C(CCC4C3CCC3(C)C(OC(C)=O)CCC43)C2)cc1` (centres undefined) [3-(4-methoxyphenyl)androst-2-en-17-yl acetate] here?
Its melting point is 179 °C.

For `COc1c(B(O)O)cccc1C(=O)O` [3-(Dihydroxyboryl)-2-methoxybenzoic acid], which melting point is on record?
Its melting point is 157 °C.

For `O=C(Nc1cccc(OC(=O)c2ccccc2)c1)c1ccccc1` [3-(benzoylamino)phenyl benzoate], which melting point is on record?
The melting point was 153 °C.

With `CC(C)(C)OC(=O)NC(CC(=O)O)c1ccccc1F` (centres undefined) [3-(boc-amino)-3-(2-fluorophenyl)propionic acid] as the molecule, how does the melting point read?
The melting point was 143 °C.

For `COc1cccc(C(CC(=O)O)NC(=O)OC(C)(C)C)c1` (centres undefined) [3-(boc-amino)-3-(3-methoxyphenyl)propionic acid], which melting point is on record?
Its melting point is 82 °C.

For `COC(=O)c1cccc(N=C=O)c1` [3-(methoxycarbonyl)phenyl isocyanate], which melting point is on record?
Its melting point is 37 °C.

For `CSc1cccc(B(O)O)c1` [3-(methylthio)benzeneboronic acid], which melting point is on record?
The melting point was 160 °C.

For `C/C(=C/C(=O)O)C(F)(F)F` [3-(trifluoromethyl)crotonic acid], which melting point is on record?
The melting point was 29 °C.

Which melting point does the source give for `Oc1cccc(Nc2ccccc2)c1` [3-Anilinophenol] here?
The melting point was 81.5 °C.

With `C[C@]12CC[C@H](O)CC1=CC[C@@H]1[C@@H]2CC[C@]2(C)C(=O)CC[C@@H]12` [3-Beta-Hydroxy-5-Androsten-17-One] as the molecule, how does the melting point read?
The melting point was 140 °C.

Which melting point does the source give for `Cc1cccc(C(=O)O)c1` [3-Methylbenzoic acid] here?
Its melting point is 110 °C.

For `O=C(O)c1cccc([N+](=O)[O-])c1` [3-Nitrobenzoic acid], which melting point is on record?
Its melting point is 142 °C.

Which melting point does the source give for `O=[N+]([O-])c1cccc(O)c1` [3-Nitrophenol] here?
Its melting point is 97 °C.

For `CC(=O)CC(=O)Nc1ccccc1` [3-Oxo-N-phenylbutanamide], which melting point is on record?
The melting point was 86 °C.

For `CCOC(=O)c1[nH]c(C)c(C(C)=O)c1C` [3-acetyl-2,4-dimethyl-5-(ethoxycarbonyl)pyrrole], which melting point is on record?
Its melting point is 142 °C.

For `CC(=O)c1cccc(C#N)c1` [3-acetylbenzonitrile], which melting point is on record?
Its melting point is 99 °C.

With `CC(=O)c1cccc(N=C=S)c1` [3-acetylphenyl isothiocyanate] as the molecule, how does the melting point read?
Its melting point is 24 °C.

For `CC(N)CCc1ccccc1` (centres undefined) [3-amino-1-phenylbutane], which melting point is on record?
Its melting point is -50 °C.

With `NC1=C(c2ccccc2)C(=O)c2ccccc21` [3-amino-2-phenylindenone] as the molecule, how does the melting point read?
The melting point was 271 °C.

Which melting point does the source give for `Nc1n[nH]c(-c2ccccc2)c1Br` [3-amino-4-bromo-5-phenyl-1h-pyrazole] here?
The melting point was 114 °C.

With `Cc1ccc(B(O)O)cc1N` [3-amino-4-methylbenzeneboronic acid] as the molecule, how does the melting point read?
The melting point was 250 °C.

Which melting point does the source give for `Nc1cccc(C(=O)O)c1` [3-aminobenzoic acid] here?
Its melting point is 175 °C.

Which melting point does the source give for `Nc1cccc(O)c1` [3-aminophenol] here?
The melting point was 124 °C.

With `Nc1cnc2ccccc2c1` [3-aminoquinoline] as the molecule, how does the melting point read?
The melting point was 94 °C.

Which melting point does the source give for `O=C(O)c1cccc(C(=O)c2ccccc2)c1` [3-benzoylbenzoic acid] here?
The melting point was 164 °C.

For `O=C(O)c1cccc(OCc2ccccc2)c1` [3-benzyloxybenzoic acid], which melting point is on record?
Its melting point is 134 °C.

For `O=c1on(-c2ccccc2)c(Br)c1-c1ccccc1` [3-bromo-2,4-diphenylisoxazol-5(2H)-one], which melting point is on record?
Its melting point is 166 °C.

For `COc1ccc(C(=O)O)cc1Br` [3-bromo-4-methoxybenzoic acid], which melting point is on record?
Its melting point is 220 °C.

For `COc1ccc(C#N)cc1Br` [3-bromo-4-methoxybenzonitrile], which melting point is on record?
Its melting point is 122 °C.

For `OB(O)c1cccc(Br)c1` [3-bromobenzeneboronic acid], which melting point is on record?
The melting point was 166 °C.

Which melting point does the source give for `Brc1cnc2ccccc2c1` [3-bromoquinoline] here?
Its melting point is 14 °C.

Which melting point does the source give for `Cc1cccc(Br)c1` [3-bromotoluene] here?
Its melting point is -40 °C.

Which melting point does the source give for `C#CCCO` [3-butyn-1-ol] here?
The melting point was -63 °C.

Which melting point does the source give for `Cc1c(N)cccc1Cl` [3-chloro-2-methylaniline] here?
The melting point was 2 °C.

For `Clc1nsnc1-c1cccnc1` [3-chloro-4-(3-pyridyl)-1,2,5-thiadiazole], which melting point is on record?
Its melting point is 56 °C.

For `N#Cc1ccncc1Cl` [3-chloro-4-cyanopyridine], which melting point is on record?
The melting point was 73 °C.

With `OB(O)c1ccc(F)c(Cl)c1` [3-chloro-4-fluorobenzeneboronic acid] as the molecule, how does the melting point read?
Its melting point is 258 °C.

Which melting point does the source give for `Cc1ccc(B(O)O)cc1Cl` [3-chloro-4-methylbenzeneboronic acid] here?
Its melting point is 227 °C.

With `Nc1cccc(Cl)c1` [3-chloroaniline] as the molecule, how does the melting point read?
Its melting point is -10 °C.

For `N#Cc1cccc(Cl)c1` [3-chlorobenzonitrile], which melting point is on record?
The melting point was 41 °C.

Which melting point does the source give for `Clc1cccc(-c2ccccc2)c1` [3-chlorobiphenyl] here?
Its melting point is 18 °C.

With `O=C(O)Cc1cccc(Cl)c1` [3-chlorophenylacetic acid] as the molecule, how does the melting point read?
Its melting point is 79 °C.

Which melting point does the source give for `O=S(=O)(Cl)Cc1cccc(Cl)c1` [3-chlorophenylmethanesulfonyl chloride] here?
Its melting point is 71 °C.

With `N#Cc1cccnc1Oc1ccccc1` [3-cyano-2-phenoxypyridine] as the molecule, how does the melting point read?
Its melting point is 108 °C.

For `N#Cc1cccc(C(=O)O)c1` [3-cyanobenzoic acid], which melting point is on record?
The melting point was 222 °C.

Which melting point does the source give for `CCCCCCCC(=O)CC` [3-decanone] here?
The melting point was -4 °C.

For `CCc1nnc2cc(-c3ccccc3)[nH]n12` [3-ethyl-6-phenyl-5H-pyrazolo[5,1-c][1,2,4]triazole], which melting point is on record?
The melting point was 189 °C.

With `Cc1c(F)ccc([N+](=O)[O-])c1C` [3-fluoro-1,2-dimethyl-6-nitrobenzene] as the molecule, how does the melting point read?
Its melting point is 41 °C.

With `[O-][n+]1cccc(F)c1` [3-fluoropyridine n-oxide] as the molecule, how does the melting point read?
Its melting point is 67 °C.

For `Cc1occc(=O)c1O` [3-hydroxy-2-methyl-4-pyrone], which melting point is on record?
The melting point was 163 °C.

Which melting point does the source give for `COc1ccc(OC)c2c1C(=O)OC2O` (centres undefined) [3-hydroxy-4,7-dimethoxy-2-benzofuran-1(3H)-one] here?
Its melting point is 192 °C.

Which melting point does the source give for `COc1cc(OC)c2c(c1)C(O)OC2=O` (centres undefined) [3-hydroxy-5,7-dimethoxy-2-benzofuran-1(3H)-one] here?
Its melting point is 185 °C.

Which melting point does the source give for `O=C(c1ccccc1)c1cccc(O)c1` [3-hydroxybenzophenone] here?
The melting point was 114 °C.

Which melting point does the source give for `OCc1cccc(O)c1` [3-hydroxybenzyl_alcohol] here?
The melting point was 72 °C.

With `N#CCCO` [3-hydroxypropionitrile] as the molecule, how does the melting point read?
Its melting point is -46 °C.

For `N#Cc1cccc(I)c1` [3-iodobenzonitrile], which melting point is on record?
Its melting point is 40 °C.

Which melting point does the source give for `CC(C)c1cccc(B(O)O)c1` [3-isopropylbenzeneboronic acid] here?
The melting point was 78 °C.

With `COC1OC(=O)c2ccccc21` (centres undefined) [3-methoxy-2-benzofuran-1(3H)-one] as the molecule, how does the melting point read?
The melting point was 44 °C.

Which melting point does the source give for `COc1cccc(C(=O)O)c1` [3-methoxybenzoic acid] here?
The melting point was 106 °C.

Which melting point does the source give for `COc1ccc2c(c1)CC2O` (centres undefined) [3-methoxybicyclo[4.2.0]octa-1,3,5-trien-7-ol] here?
Its melting point is 38 °C.

With `COc1cccc(O)c1` [3-methoxyphenol] as the molecule, how does the melting point read?
Its melting point is -18 °C.

With `Cc1ccn(C(N)=O)n1` [3-methyl-1h-pyrazole-1-carboxamide] as the molecule, how does the melting point read?
Its melting point is 125 °C.

For `CC(=O)C(C)C` [3-methyl-2-butanone], which melting point is on record?
The melting point was -92 °C.

For `CC=C(C)CC` [3-methyl-cis-2-pentene], which melting point is on record?
Its melting point is -135 °C.

For `CC=C(/C)CCC` [3-methyl-trans-2-hexene], which melting point is on record?
The melting point was -129 °C.

Which melting point does the source give for `Cc1cccc(-c2ccccc2)c1` [3-methylbiphenyl] here?
Its melting point is 5 °C.

For `CCCCC(C)CC` (centres undefined) [3-methylheptane], which melting point is on record?
Its melting point is -121 °C.

With `Cc1cccc(C(=O)NCC(=O)O)c1` [3-methylhippuric acid] as the molecule, how does the melting point read?
Its melting point is 139 °C.
